# Measured values as given in PMC5218480 (PLoS ONE, 2017).
# Test system: MV-4-11 cells
# Assay: Gene expression microarray analysis (Affymetrix PrimeView) and GSEA
# Assay type: cell-based, human
# Design: RFU PODN (11730768_x_at) / Fold change /veh PODN (11730768_x_at) / RFU LINC00158 (11744669_a_at) / Fold change /veh LINC00158 (11744669_a_at) / RFU DUSP10 (11751237_a_at) / Fold change /veh DUSP10 (11751237_a_at) / RFU ID3 (11757404_x_at) / Fold change /veh ID3 (11757404_x_at) / RFU PLEKHG5 (11737974_s_at) / Fold change /veh PLEKHG5 (11737974_s_at) / RFU LRRC4B (11730491_at) / Fold change /veh LRRC4B (11730491_at) / RFU GIMAP4 (11747438_a_at) / Fold change /veh GIMAP4 (11747438_a_at) / RFU KRT8 (11758183_x_at) / Fold change /veh KRT8 (11758183_x_at) / RFU CNN1 (11734310_a_at) / Fold change /veh CNN1 (11734310_a_at) / RFU VPS37D (11726825_at) / Fold change /veh VPS37D (11726825_at) / RFU C10orf10 (11716522_x_at) / Fold change /veh C10orf10 (11716522_x_at) / RFU KIR2DL2 /// KIR2DL4 /// KIR2DL5A /// KIR2DL5B /// KIR2DS1 /// KIR2DS2 /// KIR2DS3 /// KIR2DS4 /// KIR3DL3 /// KIR3DL3 /// KIR3DS1 (11738374_at) / Fold change /veh KIR2DL2 /// KIR2DL4 /// KIR2DL5A /// KIR2DL5B /// KIR2DS1 /// KIR2DS2 /// KIR2DS3 /// KIR2DS4 /// KIR3DL3 /// KIR3DL3 /// KIR3DS1 (11738374_at) / RFU C1QL1 (11718748_at) / Fold change /veh C1QL1 (11718748_at) / RFU TMPRSS4 (11747572_a_at) / Fold change /veh TMPRSS4 (11747572_a_at) / RFU HAMP (11756126_x_at) / Fold change /veh HAMP (11756126_x_at) / RFU RNFT2 (11725882_a_at) / Fold change /veh RNFT2 (11725882_a_at) / RFU NR4A2 (11747474_a_at) / Fold change /veh NR4A2 (11747474_a_at) / RFU ABCC12 (11746883_a_at) / Fold change /veh ABCC12 (11746883_a_at) / RFU TMEM136 (11760407_x_at) / Fold change /veh TMEM136 (11760407_x_at) / RFU CLDN22 /// WWC2 (11732394_at) / Fold change /veh CLDN22 /// WWC2 (11732394_at) / RFU HLA-DPB1 (11760878_x_at) / Fold change /veh HLA-DPB1 (11760878_x_at) / RFU SPINT1 (11716480_a_at) / Fold change /veh SPINT1 (11716480_a_at) / RFU GAP43 (11754022_s_at) / Fold change /veh GAP43 (11754022_s_at) / RFU A4GNT (11735810_at) / Fold change /veh A4GNT (11735810_at) / RFU PRB3 (11715151_x_at) / Fold change /veh PRB3 (11715151_x_at) / RFU TUBB4B (11761932_at) / Fold change /veh TUBB4B (11761932_at) / RFU CAPN14 (11732068_a_at) / Fold change /veh CAPN14 (11732068_a_at) / RFU TMCC2 (11721928_a_at) / Fold change /veh TMCC2 (11721928_a_at) / RFU IRGQ (11745062_a_at) / Fold change /veh IRGQ (11745062_a_at) / RFU FAM174B (11720279_a_at) / Fold change /veh FAM174B (11720279_a_at) / RFU TMPRSS4 (11748680_a_at) / Fold change /veh TMPRSS4 (11748680_a_at) / RFU FAM212B (11763350_a_at) / Fold change /veh FAM212B (11763350_a_at) / RFU PLEKHG5 (11743358_a_at) / Fold change /veh PLEKHG5 (11743358_a_at) / RFU ZSCAN30 (11745921_a_at) / Fold change /veh ZSCAN30 (11745921_a_at) / RFU CMKLR1 (11741424_a_at) / Fold change /veh CMKLR1 (11741424_a_at) / RFU LOC101060620 /// MAPK8IP1 (11723275_at) / Fold change /veh LOC101060620 /// MAPK8IP1 (11723275_at) / RFU SPTSSB (11747773_x_at) / Fold change /veh SPTSSB (11747773_x_at) / RFU PRSS12 (11739890_at) / Fold change /veh PRSS12 (11739890_at) / RFU BIN1 (11741810_x_at) / Fold change /veh BIN1 (11741810_x_at) / RFU WNT11 (11732464_a_at) / Fold change /veh WNT11 (11732464_a_at) / RFU C10orf10 (11716521_a_at) / Fold change /veh C10orf10 (11716521_a_at) / RFU C5orf56 (11738089_at) / Fold change /veh C5orf56 (11738089_at) / RFU CYB561 (11721691_x_at) / Fold change /veh CYB561 (11721691_x_at) / RFU ANKRD19P (11752326_a_at) / Fold change /veh ANKRD19P (11752326_a_at) / RFU OR2T12 /// OR2T33 /// OR2T8 (11738714_s_at) / Fold change /veh OR2T12 /// OR2T33 /// OR2T8 (11738714_s_at) / RFU VCAN (11748164_a_at) / Fold change /veh VCAN (11748164_a_at) / RFU JSRP1 (11732532_at) / Fold change /veh JSRP1 (11732532_at) / RFU KRTAP10-11 (11738290_x_at) / Fold change /veh KRTAP10-11 (11738290_x_at) / RFU MYO3A (11730013_a_at) / Fold change /veh MYO3A (11730013_a_at) / RFU EBF3 (11725865_a_at) / Fold change /veh EBF3 (11725865_a_at) / RFU CAMK2N1 (11719241_x_at) / Fold change /veh CAMK2N1 (11719241_x_at) / RFU C5orf56 (11738088_a_at) / Fold change /veh C5orf56 (11738088_a_at) / RFU OLFML3 (11715873_a_at) / Fold change /veh OLFML3 (11715873_a_at) / RFU LOC100653217 /// NTM (11731650_a_at) / Fold change /veh LOC100653217 /// NTM (11731650_a_at) / RFU MAPK11 (11762145_a_at) / Fold change /veh MAPK11 (11762145_a_at) / RFU FIZ1 (11724087_x_at) / Fold change /veh FIZ1 (11724087_x_at) / RFU OASL (11726364_x_at) / Fold change /veh OASL (11726364_x_at) / RFU SOX15 (11748057_x_at) / Fold change /veh SOX15 (11748057_x_at) / RFU CD79A (11719716_a_at) / Fold change /veh CD79A (11719716_a_at) / RFU HIST1H1D (11736915_at) / Fold change /veh HIST1H1D (11736915_at) / RFU CASKIN2 (11723855_a_at) / Fold change /veh CASKIN2 (11723855_a_at) / RFU LOC730098 (11760151_x_at) / Fold change /veh LOC730098 (11760151_x_at) / RFU OR4N2 (11742367_at) / Fold change /veh OR4N2 (11742367_at) / RFU PRRT2 (11749266_a_at) / Fold change /veh PRRT2 (11749266_a_at) / RFU SNX32 (11753110_a_at) / Fold change /veh SNX32 (11753110_a_at) / RFU CDHR5 (11726645_a_at) / Fold change /veh CDHR5 (11726645_a_at) / RFU RCAN1 (11760418_a_at) / Fold change /veh RCAN1 (11760418_a_at) / RFU FAM167A (11723789_a_at) / Fold change /veh FAM167A (11723789_a_at) / RFU FAM26E (11764081_at) / Fold change /veh FAM26E (11764081_at) / RFU ISYNA1 (11749810_s_at) / Fold change /veh ISYNA1 (11749810_s_at) / RFU ACY1 (11761880_at) / Fold change /veh ACY1 (11761880_at) / RFU 11764098_at / Fold change /veh 11764098_at / RFU SAMD14 (11745864_x_at) / Fold change /veh SAMD14 (11745864_x_at) / RFU NPB (11741838_a_at) / Fold change /veh NPB (11741838_a_at) / RFU TMPRSS6 (11731388_a_at) / Fold change /veh TMPRSS6 (11731388_a_at) / RFU KRTAP10-2 (11738614_at) / Fold change /veh KRTAP10-2 (11738614_at) / RFU ARHGAP8 /// PRR5-ARHGAP8 (11727945_x_at) / Fold change /veh ARHGAP8 /// PRR5-ARHGAP8 (11727945_x_at) / RFU KRTAP5-7 /// NADSYN1 (11734609_at) / Fold change /veh KRTAP5-7 /// NADSYN1 (11734609_at) / RFU RASL12 (11751679_a_at) / Fold change /veh RASL12 (11751679_a_at) / RFU CDKN2B (11736163_a_at) / Fold change /veh CDKN2B (11736163_a_at) / RFU PRF1 (11729649_at) / Fold change /veh PRF1 (11729649_at) / RFU, ZNF638 /// ZNF638-IT1 / Fold change vs veh, ZNF638 /// ZNF638-IT1 / RFU, PANK3 / Fold change vs veh, PANK3 / RFU, SH3YL1 / Fold change vs veh, SH3YL1 / RFU, ZEB2 / Fold change vs veh, ZEB2 / RFU, NRIP1 / Fold change vs veh, NRIP1 / RFU, PTTG1IP / Fold change vs veh, PTTG1IP / RFU, CAPN2 / Fold change vs veh, CAPN2 / RFU, MED14 / Fold change vs veh, MED14 / RFU, SNORA58 / Fold change vs veh, SNORA58 / RFU, C1orf63 / Fold change vs veh, C1orf63 / RFU, LRRFIP1 / Fold change vs veh, LRRFIP1 / RFU, NDUFAF7 / Fold change vs veh, NDUFAF7 / RFU, SLC12A2 / Fold change vs veh, SLC12A2 / RFU, IBTK / Fold change vs veh, IBTK / RFU, ESF1 / Fold change vs veh, ESF1 / Fold change vs veh, TMEM50B / RFU, TAOK1 / Fold change vs veh, TAOK1 / RFU, ACBD3 / Fold change vs veh, ACBD3 / RFU, TMA16 / Fold change vs veh, TMA16 / RFU, RWDD3 / Fold change vs veh, RWDD3 / RFU, BCAT1 / Fold change vs veh, BCAT1 / RFU, EDEM3 / Fold change vs veh, EDEM3 / RFU, TMEM33 / Fold change vs veh, TMEM33 / RFU, WDR75 / Fold change vs veh, WDR75 / RFU, AHCTF1 / Fold change vs veh, AHCTF1 / RFU, TFRC / Fold change vs veh, TFRC / RFU, ZDHHC17 / Fold change vs veh, ZDHHC17 / RFU, NOM1 / Fold change vs veh, NOM1 / RFU, ARL8B / Fold change vs veh, ARL8B / RFU, ZBTB11 / Fold change vs veh, ZBTB11 / RFU, TAMM41 / Fold change vs veh, TAMM41 / RFU, KIAA1704 /// LOC100996395 / Fold change vs veh, KIAA1704 /// LOC100996395 / RFU, ING1 / Fold change vs veh, ING1 / RFU, TRMT61B / Fold change vs veh, TRMT61B / RFU, FUBP3 / Fold change vs veh, FUBP3 / RFU, TP53 / Fold change vs veh, TP53 / RFU, TNKS2 / Fold change vs veh, TNKS2 / RFU, ZFP14 / Fold change vs veh, ZFP14 / RFU, ACTR2 / Fold change vs veh, ACTR2 / RFU, PPP3R1 / Fold change vs veh, PPP3R1 / RFU, PIK3R1 / Fold change vs veh, PIK3R1 / RFU, HNRNPA1 / Fold change vs veh, HNRNPA1 / RFU, RNF170 / Fold change vs veh, RNF170 / RFU, ZNF28 / Fold change vs veh, ZNF28 / RFU, RNGTT / Fold change vs veh, RNGTT / RFU, OGT / Fold change vs veh, OGT / RFU, BRD1 / Fold change vs veh, BRD1 / RFU, MARS / Fold change vs veh, MARS / RFU, ZNF655 / Fold change vs veh, ZNF655 / RFU, FAHD1 / Fold change vs veh, FAHD1 / RFU, BDP1 / Fold change vs veh, BDP1 / RFU, LRRCC1 / Fold change vs veh, LRRCC1 / RFU, ARID1A / Fold change vs veh, ARID1A / RFU, ZNF146 / Fold change vs veh, ZNF146 / RFU, ZNF330 / Fold change vs veh, ZNF330 / RFU, GPN3 / Fold change vs veh, GPN3 / RFU, C9orf123 / Fold change vs veh, C9orf123 / RFU, N4BP2L2 / Fold change vs veh, N4BP2L2 / RFU, ARFIP1 / Fold change vs veh, ARFIP1 / RFU, FAM179B / Fold change vs veh, FAM179B / RFU, BCL10 / Fold change vs veh, BCL10 / RFU, UHRF1BP1L / Fold change vs veh, UHRF1BP1L / RFU, BET1 / Fold change vs veh, BET1 / RFU, CNOT2 / Fold change vs veh, CNOT2 / RFU, ZNF268 / Fold change vs veh, ZNF268 / Fold change vs veh, ZNF507 / RFU, DGCR2 / Fold change vs veh, DGCR2 / RFU, WDSUB1 / Fold change vs veh, WDSUB1 / Fold change vs veh, HSP90B1 /// MIR3652 / RFU, ADSS / Fold change vs veh, ADSS / RFU, GK / Fold change vs veh, GK / RFU, ZNF148 / Fold change vs veh, ZNF148 / RFU, TAF9 / Fold change vs veh, TAF9 / RFU, SLC1A5 / Fold change vs veh, SLC1A5 / RFU, SLMO2 / Fold change vs veh, SLMO2 / RFU, ABCC4 / Fold change vs veh, ABCC4 / RFU, LOC101060439 /// RAP1B / Fold change vs veh, LOC101060439 /// RAP1B / RFU, RFX7 / Fold change vs veh, RFX7 / RFU, GTPBP10 / Fold change vs veh, GTPBP10 / RFU, CNEP1R1 / Fold change vs veh, CNEP1R1 / RFU, BIVM-ERCC5 /// ERCC5 / Fold change vs veh, BIVM-ERCC5 /// ERCC5 / RFU, ILF3 / Fold change vs veh, ILF3 / RFU 11762660_at / Fold change /veh 11762660_at / RFU VCAN (11757783_s_at) / Fold change /veh VCAN (11757783_s_at) / RFU DDX43 (11728927_at) / Fold change /veh DDX43 (11728927_at) / RFU KRT8 (11758188_x_at) / Fold change /veh KRT8 (11758188_x_at) / RFU NKD1 (11759106_at) / Fold change /veh NKD1 (11759106_at) / RFU SRD5A1 (11742802_a_at) / Fold change /veh SRD5A1 (11742802_a_at) / RFU TPSAB1 /// TPSB2 (11721975_s_at) / Fold change /veh TPSAB1 /// TPSB2 (11721975_s_at) / RFU GSTM3 (11746129_a_at) / Fold change /veh GSTM3 (11746129_a_at) / RFU IL23R (11737362_x_at) / Fold change /veh IL23R (11737362_x_at) / RFU TMEM51 (11727254_a_at) / Fold change /veh TMEM51 (11727254_a_at) / RFU PIWIL2 (11732686_x_at) / Fold change /veh PIWIL2 (11732686_x_at) / RFU ORM1 (11744905_x_at) / Fold change /veh ORM1 (11744905_x_at) / RFU CCDC152 (11743942_at) / Fold change /veh CCDC152 (11743942_at) / RFU ECM1 (11717891_a_at) / Fold change /veh ECM1 (11717891_a_at) / RFU IL23R (11748794_a_at) / Fold change /veh IL23R (11748794_a_at) / RFU TNFAIP8L3 (11732012_x_at) / Fold change /veh TNFAIP8L3 (11732012_x_at) / RFU MBOAT4 (11741988_at) / Fold change /veh MBOAT4 (11741988_at) / RFU 11764193_at / Fold change /veh 11764193_at / RFU TMEM53 (11763286_at) / Fold change /veh TMEM53 (11763286_at) / RFU MAGEB2 (11727129_at) / Fold change /veh MAGEB2 (11727129_at) / RFU TMEM200A (11744735_a_at) / Fold change /veh TMEM200A (11744735_a_at) / RFU CCDC152 (11751479_a_at) / Fold change /veh CCDC152 (11751479_a_at) / RFU FAM211A (11726209_a_at) / Fold change /veh FAM211A (11726209_a_at) / RFU RGS16 (11746705_a_at) / Fold change /veh RGS16 (11746705_a_at) / RFU VCAN (11755009_s_at) / Fold change /veh VCAN (11755009_s_at) / RFU RHOB (11743442_s_at) / Fold change /veh RHOB (11743442_s_at) / RFU RGS16 (11720943_a_at) / Fold change /veh RGS16 (11720943_a_at) / RFU RGS16 (11720944_at) / Fold change /veh RGS16 (11720944_at) / RFU, VPS4B / Fold change vs veh, VPS4B / RFU, CREB1 / Fold change vs veh, CREB1 / RFU, DNAJC13 / Fold change vs veh, DNAJC13 / RFU, GNAQ / Fold change vs veh, GNAQ / RFU, CDK5R1 / Fold change vs veh, CDK5R1 / RFU, ZRANB3 / Fold change vs veh, ZRANB3 / RFU, CUL4A / Fold change vs veh, CUL4A / RFU, CCNY / Fold change vs veh, CCNY / RFU, UFL1 / Fold change vs veh, UFL1 / RFU, COG3 / Fold change vs veh, COG3 / RFU, DIAPH2 / Fold change vs veh, DIAPH2 / RFU, SKA2 / Fold change vs veh, SKA2 / RFU, AFF3 / Fold change vs veh, AFF3 / RFU, LMF1 / Fold change vs veh, LMF1 / RFU, IPO11 / Fold change vs veh, IPO11 / RFU, DFFB / Fold change vs veh, DFFB / RFU, FOXP1 / Fold change vs veh, FOXP1 / RFU, CARD8 / Fold change vs veh, CARD8 / RFU, STRN3 / Fold change vs veh, STRN3 / RFU, ADK / Fold change vs veh, ADK / RFU, RASSF2 / Fold change vs veh, RASSF2 / RFU, WIPF1 / Fold change vs veh, WIPF1 / RFU, LARP1B / Fold change vs veh, LARP1B / RFU, RASA1 / Fold change vs veh, RASA1 / RFU, RB1 / Fold change vs veh, RB1 / RFU, PPFIA1 / Fold change vs veh, PPFIA1 / RFU, MAT2A / Fold change vs veh, MAT2A / RFU, CCT5 / Fold change vs veh, CCT5 / RFU, WDR92 / Fold change vs veh, WDR92 / RFU, CUX1 / Fold change vs veh, CUX1 / RFU, TTC7A / Fold change vs veh, TTC7A / RFU, TMEM135 / Fold change vs veh, TMEM135 / RFU, DEPTOR / Fold change vs veh, DEPTOR / RFU, CPM / Fold change vs veh, CPM / RFU, DNAJB6 / Fold change vs veh, DNAJB6 / RFU, CACNA2D3 / Fold change vs veh, CACNA2D3 / RFU, DTX4 / Fold change vs veh, DTX4 / RFU, TFCP2 / Fold change vs veh, TFCP2 / RFU, GMCL1 /// GMCL1P1 / Fold change vs veh, GMCL1 /// GMCL1P1 / RFU, AEBP2 / Fold change vs veh, AEBP2 / RFU, SNHG1 /// SNORD22 /// SNORD25 /// SNORD26 /// SNORD27 /// SNORD28 /// SNORD29 /// SNORD31 / Fold change vs veh, SNHG1 /// SNORD22 /// SNORD25 /// SNORD26 /// SNORD27 /// SNORD28 /// SNORD29 /// SNORD31 / Fold change (Aza/veh), C12orf56 (ProbeSet 11735607_a_at) / Fold change (ACY-1035/veh), C12orf56 (ProbeSet 11735607_a_at) / Fold change (Aza/veh), FGFR1OP (ProbeSet 11751329_s_at) / Fold change (ACY-1035/veh), FGFR1OP (ProbeSet 11751329_s_at) / Fold change (Aza/veh), VPS36 (ProbeSet 11739960_a_at) / Fold change (ACY-1035/veh), VPS36 (ProbeSet 11739960_a_at) / RFU SYPL1 (11715823_x_at) / Fold change /veh SYPL1 (11715823_x_at) / RFU IGFBP7 (11715501_s_at) / Fold change /veh IGFBP7 (11715501_s_at) / RFU REEP3 (11722064_at) / Fold change /veh REEP3 (11722064_at) / RFU IGLL1 (11728026_x_at) / Fold change /veh IGLL1 (11728026_x_at): dose or concentration left out as unconfirmed
# Settings: ProbeSet 11723475_a_at; LIST B
compound,measurement,value
Nc1ccc(-c2cccs2)cc1NC(=O)c1ccc2c(c1)cc(C1CC1)n2CCN1CCOCC1 [ACY-1035],"RFU, TRMT61B",136.33 RFU
